In patent publication US10377757B2, “Crystal form of JAK inhibitor and preparation method thereof” (CRYSTAL PHARMATECH CO., LTD, priority 2015, dated 2019):
Entries after “also recorded” stand apart in the source; their conditions may differ.

Legend:
JAK2 = JAK2 (Homo sapiens, UniProt O60674); conditions: kinase detection, selectivity over JAK3; cited from earlier work
[1] = Stability assessment: storage under stress conditions, XRPD after storage; assay type: physicochemical; conditions: for stability (overall conclusion in words): solid form stability on storage; for Form Change: XRPD
Experimental: The crystalline Form I of the present disclosure was stored under 5° C., 25° C./60% RH and 40° C./75% relative humidity for 90 days. XRPD patterns were collected after storage.
The crystalline Form II of the present disclosure was stored under 5° C. and 25° C./60% RH. XRPD patterns were collected after storage.
Phosphate Form A of the present disclosure was stored under 5° C., 25° C./60% RH and 40° C./75% RH for 90 days. XRPD patterns were collected after storage.
Two of 10 mg of phosphate Form C were respectively opened stored at 25° C./60% RH and 40° C./75% RH for 30 days. XRPD and purity of the sample were collected after storage.

[2] = Hygroscopicity assessment by dynamic vapor sorption (DVS); assay type: physicochemical; conditions: for weight gain under 80% Relative Humidity: DVS, 10 mg sample, 80% RH
Experimental: Hygroscopicity of 10 mg Form I of the present disclosure was tested using dynamic vapor sorption (DVS). 5.
(§1) About hygroscopicity characterization description and definition of hygroscopicity (Chinese Pharmacopoeia 2010 edition appendix XIXJ Drug hygroscopic test guidelines, test at 25° C.+/−1° C., 80% Relative Humidity) • deliquescent: sufficient water is absorbed to form a liquid; • very hygroscopic: increase in mass is equal to or greater than 15 percent; • hygroscopic: increase in mass is less than 15 percent and equal to or greater than 2 percent; • slightly hygroscopic: increase in mass is less than 2 percent and equal to or greater than 0.2 percent. • no or almost no hygroscopic: increase in mass is less than 0.2%.
Hygroscopicity of 10 mg of phosphate crystalline Form A and phosphate crystalline Form C of the present disclosure were tested using dynamic vapor sorption (DVS). The DVS plot of phosphate crystalline Form A is shown in FIG. 23, The DVS plot of phosphate crystalline Form C is shown in FIG. 24.
as §1, with “Pharmacopoeia” for “About hygroscopicity characterization description and definition of hygroscopicity (Chinese Pharmacopoeia”

[3] = stored at 25° C./60% RH for 30 days
[4] = stored at 25° C./60% RH for 90 days
[5] = stored at 40° C./75% RH for 90 days

Sequence of JAK2 (O60674 whole entry): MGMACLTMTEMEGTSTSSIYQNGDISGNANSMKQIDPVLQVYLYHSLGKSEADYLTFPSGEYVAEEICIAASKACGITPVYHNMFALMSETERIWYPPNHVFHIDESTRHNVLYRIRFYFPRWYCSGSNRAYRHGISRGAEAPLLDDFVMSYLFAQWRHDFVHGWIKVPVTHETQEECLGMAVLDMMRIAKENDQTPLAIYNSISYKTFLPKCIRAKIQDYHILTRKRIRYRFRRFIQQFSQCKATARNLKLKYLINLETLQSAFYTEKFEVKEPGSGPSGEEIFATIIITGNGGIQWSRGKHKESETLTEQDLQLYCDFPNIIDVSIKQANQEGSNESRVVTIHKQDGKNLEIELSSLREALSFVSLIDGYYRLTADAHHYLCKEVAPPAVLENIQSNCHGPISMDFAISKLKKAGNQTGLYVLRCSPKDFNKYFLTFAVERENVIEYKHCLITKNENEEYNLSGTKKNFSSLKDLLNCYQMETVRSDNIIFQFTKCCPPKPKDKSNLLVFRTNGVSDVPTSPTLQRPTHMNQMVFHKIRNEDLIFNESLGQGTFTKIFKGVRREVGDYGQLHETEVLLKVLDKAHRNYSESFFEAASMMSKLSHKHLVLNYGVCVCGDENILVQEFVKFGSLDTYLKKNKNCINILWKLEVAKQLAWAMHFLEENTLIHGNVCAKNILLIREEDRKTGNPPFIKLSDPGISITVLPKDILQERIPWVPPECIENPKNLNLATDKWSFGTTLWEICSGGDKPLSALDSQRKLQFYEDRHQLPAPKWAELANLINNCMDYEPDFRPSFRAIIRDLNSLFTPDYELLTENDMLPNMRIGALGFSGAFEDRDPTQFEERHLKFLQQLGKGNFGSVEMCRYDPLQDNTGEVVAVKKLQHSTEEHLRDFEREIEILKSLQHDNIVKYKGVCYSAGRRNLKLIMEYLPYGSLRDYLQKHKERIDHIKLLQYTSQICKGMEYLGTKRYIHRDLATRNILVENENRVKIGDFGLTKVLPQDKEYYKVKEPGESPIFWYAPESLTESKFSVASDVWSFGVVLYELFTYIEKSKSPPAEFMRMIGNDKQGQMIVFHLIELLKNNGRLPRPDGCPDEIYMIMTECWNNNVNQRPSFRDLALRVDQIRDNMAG

Compound	stability (overall conclusion in words) [1]	Form Change ([1]; stored at 5° C. for 90 days)	Form Change [1, 3]	Form Change [1, 4]	Form Change [1, 5]	weight gain under 80% Relative Humidity [2] [%]	also measured
CCS(=O)(=O)N1CC(CC#N)(n2cc(-c3ncnc4[nH]ccc34)cn2)C1 [Baricitinib]							inhibition strength for JAK2 relative to JAK3 (JAK2): 100 times
CCS(=O)(=O)N1CC(CC#N)(n2cc(-c3ncnc4[nH]ccc34)cn2)C1 [Form II]	good stability	remains unchanged; also recorded: Form II remain unchanged	remains unchanged; also recorded: Form II remain unchanged				
CCS(=O)(=O)N1CC(CC#N)(n2cc(-c3ncnc4[nH]ccc34)cn2)C1 [Form I]	good stability	remains unchanged; also recorded: Form I remain unchanged		remains unchanged; also recorded: Form I remain unchanged	remains unchanged; also recorded: Form I remain unchanged		hygroscopicity class ([2]; Chinese Pharmacopoeia 2010 definition, 25° C.+/-1° C., 80% Relative Humidity): slightly hygroscopic (slightly hygroscopic: increase in mass is less than 2 percent and equal to or greater than 0.2 percent); weight gain under 80% Relative Humidity ([2]; listed as Form I of the compound Formula (I)): 0.44%
CCS(=O)(=O)N1CC(CC#N)(n2cc(-c3ncnc4[nH]ccc34)cn2)C1 [phosphate Form A]	good stability	remains unchanged		remains unchanged	remains unchanged	0.99	weight gain under 80% Relative Humidity ([2]; listed as phosphate Form A of the compound Formula (I)): 0.99%; Form Change ([1]; stored at 5° C. for 90 days, listed as Phosphate Crystalline Form A): Form A remain unchanged; Form Change ([1]; stored at 25° C./60% RH for 90 days, listed as Phosphate Crystalline Form A): Form A remain unchanged; Form Change ([1]; stored at 40° C./75% RH for 90 days, listed as Phosphate Crystalline Form A): Form A remain unchanged
CCS(=O)(=O)N1CC(CC#N)(n2cc(-c3ncnc4[nH]ccc34)cn2)C1 [phosphate Form C]			Form C remain			2.85	weight gain under 80% Relative Humidity ([2]; listed as phosphate Form C of the compound Formula (I)): 2.85%; Form Change ([1]; stored at 40° C./75% RH for 30 days): Form C remain
